{
  "source": "ChEMBL document CHEMBL1155441",
  "about": "(J Med Chem, 2010)",
  "molecular_target": "WD repeat-containing protein 5 (Homo sapiens, UniProt P61964)",
  "assay": "Binding affinity to WDR5 expressed in pLysS cells by optimized fluorescent polarization based competitive binding assay",
  "format": "biochemical",
  "data": [
    {"molecule": "CC(=O)N[C@@H](C)C(=O)N[C@@H](CCCNC(=N)N)C(=O)N(C)[C@@H](C)C(N)=O", "values": [
      {"measurement": "IC50", "result": "> 300", "unit": "µM"},
      {"measurement": "Ki", "result": "> 50", "unit": "µM"}
    ]},
    {"molecule": "CC(=O)N[C@@H](C)C(=O)N[C@@H](CCCNC(=N)N)C(=O)N[C@H](C(=O)N[C@@H](CCCCN)C(=O)N[C@@H](CCC(N)=O)C(=O)N[C@H](C(=O)N[C@@H](C)C(=O)N[C@@H](CCCNC(=N)N)C(=O)N[C@@H](CCCCN)C(=O)N[C@@H](CO)C(N)=O)[C@@H](C)O)[C@@H](C)O", "values": [
      {"measurement": "Ki", "result": "< 0.001", "unit": "µM"}
    ]},
    {"molecule": "C[C@H](N)C(=O)N[C@@H](CCCN=C(N)N)C(=O)N[C@@H](C)C(N)=O", "values": [
      {"measurement": "IC50", "result": "> 300", "unit": "µM"},
      {"measurement": "Ki", "result": "> 50", "unit": "µM"}
    ]}
  ]
}
